Laboratory results: PMC9491549, “Reverse mutants of the catalytic 19 kDa mutant protein (nanoKAZ/nanoLuc) from Oplophorus luciferase with coelenterazine as preferred substrate” (PLoS ONE, 2022)

Legend:
[1] = biological target: T1, native Oplophorus luciferase (OpLase) (Oplophorus gracilirostris, UniProt Q9GV45); assay: luminescence inhibition with coelenterazine; assay type: biochemical; settings: coelenterazine 1.2 × 10^−4 M (so in the source); 1 μg each in 200 μL), 30 mM Tris-HCl, 10 mM EDTA, 1 min preincubation; no inhibitor = 100
T1 construct: 19 kDa and 35 kDa subunits, 106 kDa; with Oplophorus-luciferin 2-monooxygenase non-catalytic subunit
From the text: luminescence inhibition with coelenterazine on native Oplophorus luciferase (OpLase)

[2] = biological target: T2, Gaussia luciferase (GLase) (Gaussia princeps (in: crustaceans), UniProt Q9BLZ2); assay: luminescence inhibition with coelenterazine; assay type: biochemical; settings: coelenterazine 1.2 × 10^−4 M (so in the source); 1 μg each in 200 μL), 30 mM Tris-HCl, 10 mM EDTA, 1 min preincubation; no inhibitor = 100
T2 construct: C-terminal His tag, signal peptide removed by secretion; stably expressed in CHO-K1/dhfr- cells (pcDNA3-hGL-H), Ni column
T2 sequence (Q9BLZ2 18-185): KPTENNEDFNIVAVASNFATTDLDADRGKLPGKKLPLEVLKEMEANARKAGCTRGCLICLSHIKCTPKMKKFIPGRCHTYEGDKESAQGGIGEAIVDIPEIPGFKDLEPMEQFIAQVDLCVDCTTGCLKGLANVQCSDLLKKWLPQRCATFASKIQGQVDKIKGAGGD
From the text: luminescence inhibition with coelenterazine on Gaussia luciferase (GLase)

T1 sequence (Q9GV45 28-196): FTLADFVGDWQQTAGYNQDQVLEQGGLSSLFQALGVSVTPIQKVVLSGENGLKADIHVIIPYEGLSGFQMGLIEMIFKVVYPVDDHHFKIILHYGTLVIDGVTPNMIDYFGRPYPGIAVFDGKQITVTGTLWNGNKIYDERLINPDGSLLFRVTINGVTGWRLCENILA
T1 sequence (Q9GV46 40-359 partner): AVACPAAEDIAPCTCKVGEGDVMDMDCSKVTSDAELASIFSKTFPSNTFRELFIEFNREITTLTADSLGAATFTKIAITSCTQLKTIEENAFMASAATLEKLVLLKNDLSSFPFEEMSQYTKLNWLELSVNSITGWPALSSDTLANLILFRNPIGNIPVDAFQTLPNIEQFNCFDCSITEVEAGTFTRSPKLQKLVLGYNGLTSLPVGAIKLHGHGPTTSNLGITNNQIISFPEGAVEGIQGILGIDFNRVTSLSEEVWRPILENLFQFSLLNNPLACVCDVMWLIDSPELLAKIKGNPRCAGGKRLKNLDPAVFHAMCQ

Structure (SMILES)	Relative luminescence activity (Imax, %) / OpLase ^a [1] [%]	Relative luminescence activity (Imax, %) / GLase ^a [2] [%]	Relative luminescence activity (Imax, %) / QL-nanoKAZ ^a [2] [%]
O=C1c2cc(-c3ccc(O)cc3)cc(Cc3ccccc3)c2C[C@@]1(CO)Cc1ccc(O)cc1 [(R)-HM-daCTZ]	33.5	23.5	
O=C1c2cc(-c3ccc(O)cc3)cc(Cc3ccccc3)c2C[C@H]1Cc1ccc(O)cc1 [(R)-daCTZ]	5.1	0.5	
O=C1c2cc(-c3ccc(O)cc3)cc(Cc3ccccc3)c2C[C@]1(CO)Cc1ccc(O)cc1 [(S)-HM-daCTZ]	19.7	5.3	
O=C1c2cc(-c3ccc(O)cc3)cc(Cc3ccccc3)c2C[C@@H]1Cc1ccc(O)cc1 [(S)-daCTZ]	2.1		0.4
